Data published in patent publication US12186297B2, “Compositions and methods for increasing lean-to-fat mass ratio” (AXCESS GLOBAL SCIENCES, LLC, priority 2020, dated 2025).

Experiment: Expected change in fat mass, muscle mass and lean-to-fat mass ratio in subjects following a training regimen (FIGS. 3, 4A-4C)
Type: in vivo
Details: FIG. 4A, set period of time (e.g., 1-3 months)
Description: FIG. 4A illustrates expected change in fat mass over a set period of time (e.g., 1-3 months) for subjects following a training regimen and given different treatments of HMB only (HMB), BHB only (BHB), and a combination of the same amounts of HMB and BHB (HMB+BHB).
FIG. 4B illustrates expected change in muscle mass over a set period of time (e.g., 1-3 months) for subjects following a training regimen and given different treatments of HMB only (HMB), BHB only (BHB), and a combination of the same amounts of HMB and BHB (HMB+BHB).

## CC(C)(O)CC(=O)O [HMB, beta-hydroxy-beta-methylbutyrate]
  expected change in fat mass: not expected to provide fat loss to any significant degree by itself
